Assay [1] deals with Histone deacetylase. Kind of assay: Inhibition of HDAC in human HeLa cells nuclear extract. The assay is classed as subcellular, Nucleus.
Assay [2] has as its system NCI-H1975. Kind of assay: cells. In kind it is functional, cell-based. As to conditions: Homo sapiens, NCI-H1975, 48 h.
Description: Cytotoxicity against human NCI-H1975 cells assessed as inhibition of cell growth incubated for 48 hrs by Celltiter-glo assay
Assay [3] relates to MDA-MB-231. Kind of assay: Cytotoxicity against human MDA-MB-231 cells assessed as inhibition of cell growth incubated for 48 hrs by Celltiter-glo assay. As to conditions: MDA-MB-231, 48 h. In kind it is functional, cell-based.
Assay [4] deals with NCI-H1975. Kind of assay: Induction of katanin activation mediated microtubule fragmentation in human NCI-H1975 cells at 80 nM incubated for 12 hrs by FITC/DAPI staining based confocal laser microscopic analysis. As to conditions: filed as activator. In kind it is cell-based.
The subject of assay [5] is CL1-0. The assay can be described thus: Antiproliferative activity against human CL1-0 cells harboring wild-type EGFR assessed as inhibition of cell growth by SRB assay. In kind it is functional, cell-based. On the technique in general: Sulforhodamine B stains cellular protein and so reports cell mass.
Assay [6] can be described thus: Antiproliferative activity against human CL1-5 cells harboring wild-type EGFR assessed as inhibition of cell growth by SRB assay. The assay is classed as functional, cell-based.
The nature of assay [7]: Antiproliferative activity against human CL83 cells harboring wild-type EGFR assessed as inhibition of cell growth by SRB assay. In kind it is functional, cell-based.
Assay [8] can be described thus: Antiproliferative activity against human CL141 cells harboring wild-type EGFR assessed as inhibition of cell growth by SRB assay. The assay is classed as functional, cell-based.
Assay [9] in a line: Antiproliferative activity against human CL152 cells harboring wild-type EGFR assessed as inhibition of cell growth by SRB assay. The assay is classed as functional, cell-based.
A short description of assay [10]: Antiproliferative activity against human CL25 cells harboring mutated EGFR assessed as inhibition of cell growth by SRB assay. In kind it is functional, cell-based.
Assay [11] concerns CL97. Kind of assay: Antiproliferative activity against human CL97 cells harboring mutated EGFR assessed as inhibition of cell growth by SRB assay. The assay is classed as functional, cell-based.
The nature of assay [12]: Antiproliferative activity against human CL100 cells harboring mutated EGFR assessed as inhibition of cell growth by SRB assay. The assay is classed as functional, cell-based.

Structures are written as SMILES. Activity calls are given as the source filed them. The rule behind the calls is not given here.

A word on the IC50: it is the point on the concentration scale where inhibition reaches its midpoint. For the compound `CCOc1ccc(-c2nc(C(=O)NCCCCCCC(=O)Nc3ccccc3N)c3[nH]c(=O)n(-c4ccccc4OC)c3n2)cc1`, the figures for the concentration for half-maximal inhibition (IC50) in assay [1] and in assay [2] were greater than 100 µM and 2200 nM, respectively.
As to `CCOc1ccc(-c2nc(C(=O)NCCCCCCC(=O)N(C)O)c3[nH]c(=O)n(-c4ccccc4OC)c3n2)cc1`, the IC50 was greater than 100 µM in [1] and 1500 nM in [2].
The like results for `CCOc1ccc(-c2nc(C(=O)NCCCCCCC(=O)N(Cc3ccccn3)Cc3ccccn3)c3[nH]c(=O)n(-c4ccccc4OC)c3n2)cc1` were, in that order, greater than 100 µM and 2300 nM.
`CCOc1ccc(-c2nc(C(=O)NO)c3[nH]c(=O)n(-c4ccccc4OC)c3n2)cc1` displayed a concentration for half-maximal inhibition (IC50) in [1] greater than 100 µM.
On to `CCOc1ccc(-c2nc(C(=O)NCCCCCNC(=O)CN)c3[nH]c(=O)n(-c4ccccc4OC)c3n2)cc1.Cl`, for which the 50% inhibitory concentration (IC50) in assay [1] was greater than 100 µM; in assay [2], 4900 nM.
On to `CCOc1ccc(-c2nc(C(=O)NCCOCCOCC(=O)NO)c3[nH]c(=O)n(-c4ccccc4OC)c3n2)cc1`, for which the results for the concentration for half-maximal inhibition (IC50) in assay [1] and in assay [2] were 10.8 µM and 4600 nM, respectively.
Consider `CCOc1ccc(-c2nc(C(=O)NCCCCCCCN(Cc3ccccn3)Cc3ccccn3)c3[nH]c(=O)n(-c4ccccc4OC)c3n2)cc1`, for which the IC50 in assay [1] was greater than 100 µM; in assay [2], 2700 nM.
On to `CCOc1ccc(-c2nc(C(=O)NCCCCC/C(N)=N/O)c3[nH]c(=O)n(-c4ccccc4OC)c3n2)cc1`, for which the IC50 is greater than 100 µM in [1] and 500 nM in assay [2].
The corresponding values for `COc1ccccc1-n1c(=O)[nH]c2c(C(N)=O)nc(-c3ccc(C(C)C)cc3)nc21` are greater than 100 µM and greater than 100000 nM.
As for `CCOc1ccc(-c2nc(C(=O)NCCCCCCNC(N)=O)c3[nH]c(=O)n(-c4ccccc4OC)c3n2)cc1`, the half-inhibitory concentration (IC50) in [1] is greater than 100 µM; in assay [2] it was 2000 nM.
On to `COc1ccccc1-n1c(=O)[nH]c2c(C(=O)NCCCCCCC(=O)NO)nc(C(C)C)nc21`, for which the concentration for half-maximal inhibition (IC50) came out at 0.2 µM in [1] and 1500 nM in assay [2].
Take `CCOc1ccc(-c2nc(C(N)=O)c3[nH]c(=O)n(-c4ccccc4OC)c3n2)cc1`: the IC50 in assay [1] was greater than 100 µM.
Turning to `CCOc1ccc(-c2nc(C(=O)NCCCc3nc(C(=O)NO)cs3)c3[nH]c(=O)n(-c4ccccc4OC)c3n2)cc1`, the 50% inhibitory concentration (IC50) in [1] was found to be 14.2 µM; in assay [2], 4900 nM.
As for `CCOc1ccc(-c2nc(C(=O)O)c3[nH]c(=O)n(-c4ccccc4OC)c3n2)cc1`, the IC50 is greater than 100 µM in [1] and greater than 100000 nM in [2].
Take `CCOc1ccc(-c2nc(C(=O)NCCCCCCC(=O)CSC(C)=O)c3[nH]c(=O)n(-c4ccccc4OC)c3n2)cc1`: the IC50 in assay [1] is 2.83 µM; in assay [2], 5600 nM.
As for `CCOc1ccc(-c2nc(C(=O)NCCCCCCC(=O)NC3CCCCC3O)c3[nH]c(=O)n(-c4ccccc4OC)c3n2)cc1` (centres undefined), the IC50 in [1] was greater than 100 µM; in [2], 1400 nM.
As to `CCOc1ccc(-c2nc(C(=O)NCc3ccc(C(=O)NO)cc3)c3[nH]c(=O)n(-c4ccccc4OC)c3n2)cc1`, the figures for the IC50 in assay [1], in assay [2] and in [3] were 0.25 µM, 130 nM and 70 nM, respectively.
For the compound `CCOc1ccc(-c2nc(C(=O)NCCCCNC(=O)CN)c3[nH]c(=O)n(-c4ccccc4OC)c3n2)cc1.Cl`, the values for the IC50 in assay [1] and in [2] were greater than 100 µM and 16200 nM, respectively.
Take `CCOc1ccc(-c2nc(C(=O)NCCCCCCC(=O)NO)c3[nH]c(=O)n(-c4ccccc4OC)c3n2)cn1`: the IC50 is 0.04 µM in [1], 400 nM in assay [2] and 60 nM in assay [3].
For `CCOc1ccc(-c2nc(C(=O)NCCCCCCC(=O)NO)c3[nH]c(=O)n(-c4ccccc4OC)c3n2)cc1S(N)(=O)=O`, the IC50 worked out at 0.06 µM in [1] and 24800 nM in assay [2].
Turning to `CCOc1ccc(-c2nc(C(=O)NOCCCCCC(=O)NO)c3[nH]c(=O)n(-c4ccccc4OC)c3n2)cc1`, the IC50 in assay [1] amounted to 0.13 µM; in assay [2], 250 nM; in [3], 100 nM.
On to `CCOc1ccc(-c2nc(C(=O)NCCCCCCC(=O)NOC)c3[nH]c(=O)n(-c4ccccc4OC)c3n2)cc1`, for which the IC50 in assay [1] is greater than 100 µM; in assay [2], 400 nM.
On to `CCOc1ccc(-c2nc(C(=O)NCCCCCCC(=O)NO)c3[nH]c(=O)n(-c4cccnc4OC)c3n2)cn1`, for which the IC50 is 0.002 µM in assay [1], 410 nM in assay [2] and 320 nM in [3].
With `COc1ccc(-c2nc(C(=O)NCCCCCCC(=O)NO)c3[nH]c(=O)n(-c4ccccc4OC)c3n2)cc1O`, the IC50 in [1] was 0.01 µM; in assay [2], 1200 nM; in assay [3], 310 nM.
Turning to `CCOc1ccc(-c2nc(C(=O)NCCCCCCNC(=O)CN)c3[nH]c(=O)n(-c4ccccc4OC)c3n2)cc1.Cl`, the 50% inhibitory concentration (IC50) in assay [1] was greater than 100 µM; in assay [2], 2400 nM.
For `CCOc1ccc(-c2nc(C(=O)NCCCCCCC(=O)Nc3nccs3)c3[nH]c(=O)n(-c4ccccc4OC)c3n2)cc1`, the IC50 in assay [1] is greater than 100 µM; in [2], 2600 nM.
Turning to `CCOc1ccc(-c2nc(C(=O)NCCCCCCC(=O)O)c3[nH]c(=O)n(-c4ccccc4OC)c3n2)cc1`, the half-inhibitory concentration (IC50) in assay [1] is greater than 100 µM; in assay [2] it was 3400 nM.
Regarding `CCOc1ccc(-c2nc(C(=O)NCCCCCCC(=O)NO)c3[nH]c(=O)n(-c4cccnc4OC)c3n2)cc1`, the values for the IC50 in assay [1], in assay [2] and in [3] were 0.03 µM, 300 nM and 60 nM, respectively.
Consider `CCOc1ccc(-c2nc(C(=O)NCCCCCCNC(=O)NO)c3[nH]c(=O)n(-c4ccccc4OC)c3n2)cc1`, for which the 50% inhibitory concentration (IC50) in assay [1] is greater than 100 µM; in assay [2], 3300 nM.
Regarding `CCOc1ccc(-c2nc(C(=O)NCCCCCCC(=O)NO)c3[nH]c(=O)n(-c4ccccc4OC)c3n2)cc1`, the IC50 was 0.17 µM in [1]; 140 nM in assay [2]; 60 nM in assay [5]; 170 nM in assay [6]; 320 nM in assay [7]; 270 nM in [8]. Further, the IC50 in assay [9] is 260 nM; in assay [10], 320 nM; in assay [11], 240 nM; in assay [12] it was 360 nM; in assay [3], 40 nM. For the same compound, the outcome in [4] was Active.

The record behind these values is ChEMBL document CHEMBL5518174 (Eur J Med Chem, 2024).
